Data: EP2430044B1, “PEPTIDES INCREASING THE SECRETION AND/OR EXPRESSION OF AT LEAST ONE GAS[…] AND/OR INDUCING THE INCREASE OF MUCUS CELLS OR PANETH CELLS” (Institut National de la Recherche Agronomique (INRA), priority 2009, dated 2010)

Experiments:
Assay type in all cases: cell-based, humaine
[1] = tested on: MUC5AC; assay: MUC5AC expression in HT29-MTX cells (RT-PCR); conditions: with cyprodime, quantitative RT-PCR (Lightcycler)
Description: (§1) Les cellules HT29-MTX et HT29-CI16E étaient cultivées en flasques de 25 cm^2 avec du milieu minimum essentiel DMEM supplémenté avec 10% de SVF (sérum de veau foetal) et 1 % d'antibiotiques (pénicilline 10 000 Ul/ml et streptomycine […]). Les cellules étaient incubées à 37°C dans une atmosphère humide (5 % de CO2 et […]). A confluence, les cellules soumises au préalable à l'action de la trypsine (trypsine-EDTA) étaient cultivées dans des plaques 12 puits à raison de 1 ml de milieu de culture complet par puits. Afin de maintenir les cellules dans des conditions optimales de croissance, le milieu de culture était changé tous les 2 jours.
(§2) Les expériences ont été réalisées sur les plaques 12 puits 21 jours après confluence des cellules. La veille de la stimulation, les plaques étaient cultivées sans SVF. Le pool peptidique total des yaourts ainsi que les différentes fractions lyophilisées étaient d'abord repris dans de l'eau stérile en solution 10 fois concentrée (10[Y]), [Y] correspondant à la concentration des peptides dans le yaourt initial). L'osmolarité et le pH des échantillons (ajusté à la neutralité par NaOH) étaient contrôlés à ce stade. […]
(§3) Les ARN ont été isolés et rétro-transcrits comme décrit précédemment puis les ADNc ont été quantifiés en capillaires à l'aide du kit « FastStart DNA Master SYBR Green l » sur un appareil « lightCycler » (Roche). […]

[2] = tested on: MUC4; assay: MUC4 expression in HT29-MTX cells (RT-PCR)
Description: as §1, §2, §3

[3] = tested on: HT29-MTX; assay: Mucin secretion by HT29-MTX cells (ELLA on culture supernatants); conditions: pre-incubation with cyprodime 10^-5 M
Description: as §1
as §2, with “stade. Des dilutions successives ([Y], [Y]/2 et [Y]/5) étaient ensuite réalisées dans du milieu de culture dépourvu de SVF. Le jour de l'expérience, le milieu était aspiré puis les cellules étaient lavées avec du PBS à 37°C.” for “stade.”

[4] = tested on: MUC2; assay: MUC2 expression in HT29-MTX cells (RT-PCR); conditions: with cyprodime 10^-5 M
Description: as §1, §2, §3

**Q.** Which “augmentation du niveau des transcrits codant MUC5AC induite par la fraction F3” value [1] does the source give for `COc1cccc2c1[C@]13CCN(CC4CC4)[C@H](C2)[C@]1(OC)CCC(=O)C3` [cyprodime] here?
**A.** abolit

**Q.** What about the “effet de la fraction C2 sur l'expression de MUC4” value ([2]; with cyprodime 10^-5 M) of the same compound?
**A.** aboli

**Q.** And the “augmentation du niveau des transcrits codant MUC4 induite par la fraction F3” value ([2]; with cyprodime, quantitative RT-PCR (Lightcycler))?
**A.** Un résultat identique

**Q.** And the “sécrétion de mucines induite par la fraction F3” value ([3]; fraction F3 at concentration Y)?
**A.** inhibe

**Q.** And the “sécrétion de mucines induite par la fraction C2” value ([3]; then fraction C2 at concentration Y, 4 h)?
**A.** inhibe

**Q.** And the “effet de la fraction C2 sur l'expression de MUC2” value [4]?
**A.** aboli
